Laboratory results as given in ChEMBL document CHEMBL3885881, “DrugMatrix”.

Organism: Rattus norvegicus
Assay: DrugMatrix - Regimen: Daily Repeat
Assay type: toxicity, organism-based, Sprague-Dawley
Parameters: regimen Daily Repeat, gender Male, age 6-8 weeks
Conditions: in vivo, po, route oral GAVAGE, vehicle 100 % WATER; for ABSOLUTE BASOPHIL / ABSOLUTE EOSINOPHIL / ABSOLUTE LYMPHOCYTE / ABSOLUTE MONOCYTE / ABSOLUTE SEGMENTED NEUTROPHIL / BASOPHIL / EOSINOPHIL / ERYTHROCYTE COUNT / HEMATOCRIT / HEMOGLOBIN / LEUKOCYTE COUNT / LYMPHOCYTE / MEAN CORPUSCULAR HEMOGLOBIN / MEAN CORPUSCULAR HEMOGLOBIN CONCENTRATION / MEAN CORPUSCULAR VOLUME / MONOCYTE / NEUTROPHIL / NUCLEATED RED BLOOD CELLS / PLATELET COUNT: tissue Blood; for ALANINE AMINOTRANSFERASE / ALBUMIN / ALKALINE PHOSPHATASE / ASPARTATE AMINOTRANSFERASE / BLOOD UREA NITROGEN / CARBON DIOXIDE / CHLORIDE / CHOLESTEROL / CREATINE PHOSPHOKINASE / CREATININE / GLUCOSE / LACTATE DEHYDROGENASE / LIPASE / PHOSPHORUS / POTASSIUM / SODIUM / TOTAL BILIRUBIN / TOTAL PROTEIN / URIC ACID: tissue Plasma
[1] = 0 mg/kg, 72 h, dose level Control, time 3 day
[2] = 0 mg/kg, 120 h, dose level Control, time 5 day
[3] = 175 mg/kg, 72 h, dose level High, time 3 day

O=c1[nH]c(=O)n(C2CCCO2)cc1F (centres undefined) [TEGAFUR]
ABSOLUTE BASOPHIL [1]: 0 CELLS/uL
ABSOLUTE EOSINOPHIL [1]: 168.33 CELLS/uL
ABSOLUTE LYMPHOCYTE [1]: 13654.17 CELLS/uL
ABSOLUTE MONOCYTE [1]: 121 CELLS/uL
ABSOLUTE SEGMENTED NEUTROPHIL [1]: 1223.17 CELLS/uL
BASOPHIL [1]: 0%
EOSINOPHIL [1]: 1.17%
ERYTHROCYTE COUNT [1]: 5.7 x10E6/uL
HEMATOCRIT [1]: 35.33%
HEMOGLOBIN [1]: 13.97 G/DL
LEUKOCYTE COUNT [1]: 15.17 x10E3/uL
LYMPHOCYTE [1]: 89.83%
MEAN CORPUSCULAR HEMOGLOBIN [1]: 24.53 pg
MEAN CORPUSCULAR HEMOGLOBIN CONCENTRATION [1]: 39.53 G/DL
MEAN CORPUSCULAR VOLUME [1]: 62.05 fL
MONOCYTE [1]: 0.83%
NEUTROPHIL [1]: 8.17%
NUCLEATED RED BLOOD CELLS [1]: 0 /100WBC
PLATELET COUNT [1]: 1312.17 x10E3/uL
ALANINE AMINOTRANSFERASE [1]: 50.83 u/L
ALBUMIN [1]: 4.18 G/DL
ALKALINE PHOSPHATASE [1]: 334.17 u/L
ASPARTATE AMINOTRANSFERASE [1]: 82.17 u/L
BLOOD UREA NITROGEN [1]: 15.5 mg/dL
CARBON DIOXIDE [1]: 31.33 mmol/L
CHLORIDE [1]: 99.83 MEQ/L
CHOLESTEROL [1]: 76 mg/dL
CREATINE PHOSPHOKINASE [1]: 272.17 u/L
CREATININE [1]: 0.17 mg/dL
GLUCOSE [1]: 143 mg/dL
LACTATE DEHYDROGENASE [1]: 157.5 u/L
LIPASE [1]: 9.33 u/L
PHOSPHORUS [1]: 12.18 mg/dL
POTASSIUM [1]: 6.78 MEQ/L
SODIUM [1]: 143.9 MEQ/L
TOTAL BILIRUBIN [1]: 0.22 mg/dL
TOTAL PROTEIN [1]: 5.85 G/DL
URIC ACID [1]: 1.7 mg/dL
ABSOLUTE BASOPHIL [2]: 0 CELLS/uL
ABSOLUTE EOSINOPHIL [2]: 0 CELLS/uL
ABSOLUTE LYMPHOCYTE [2]: 13539.33 CELLS/uL
ABSOLUTE MONOCYTE [2]: 177.67 CELLS/uL
ABSOLUTE SEGMENTED NEUTROPHIL [2]: 2116.33 CELLS/uL
BASOPHIL [2]: 0%
EOSINOPHIL [2]: 0%
ERYTHROCYTE COUNT [2]: 5.78 x10E6/uL
HEMATOCRIT [2]: 36.13%
HEMOGLOBIN [2]: 14.1 G/DL
LEUKOCYTE COUNT [2]: 15.83 x10E3/uL
LYMPHOCYTE [2]: 85.83%
MEAN CORPUSCULAR HEMOGLOBIN [2]: 24.42 pg
MEAN CORPUSCULAR HEMOGLOBIN CONCENTRATION [2]: 39 G/DL
MEAN CORPUSCULAR VOLUME [2]: 62.55 fL
MONOCYTE [2]: 0.83%
NEUTROPHIL [2]: 13.33%
NUCLEATED RED BLOOD CELLS [2]: 0.17 /100WBC
PLATELET COUNT [2]: 1281.17 x10E3/uL
ALANINE AMINOTRANSFERASE [2]: 55.5 u/L
ALBUMIN [2]: 4.22 G/DL
ALKALINE PHOSPHATASE [2]: 345 u/L
ASPARTATE AMINOTRANSFERASE [2]: 92.5 u/L
BLOOD UREA NITROGEN [2]: 16.5 mg/dL
CARBON DIOXIDE [2]: 26.5 mmol/L
CHLORIDE [2]: 103.5 MEQ/L
CHOLESTEROL [2]: 78.5 mg/dL
CREATINE PHOSPHOKINASE [2]: 381.5 u/L
CREATININE [2]: 0.21 mg/dL
GLUCOSE [2]: 161.83 mg/dL
LACTATE DEHYDROGENASE [2]: 487.5 u/L
LIPASE [2]: 10.17 u/L
PHOSPHORUS [2]: 11.83 mg/dL
POTASSIUM [2]: 6.4 MEQ/L
SODIUM [2]: 146.95 MEQ/L
TOTAL BILIRUBIN [2]: 0.22 mg/dL
TOTAL PROTEIN [2]: 6.22 G/DL
URIC ACID [2]: 1.83 mg/dL
ABSOLUTE BASOPHIL [3]: 0 CELLS/uL
ABSOLUTE EOSINOPHIL [3]: 0 CELLS/uL
ABSOLUTE LYMPHOCYTE [3]: 11530.33 CELLS/uL
ABSOLUTE MONOCYTE [3]: 235 CELLS/uL
ABSOLUTE SEGMENTED NEUTROPHIL [3]: 434.67 CELLS/uL
BASOPHIL [3]: 0%
EOSINOPHIL [3]: 0%
ERYTHROCYTE COUNT [3]: 5.62 x10E6/uL
HEMATOCRIT [3]: 35%
HEMOGLOBIN [3]: 13.93 G/DL
LEUKOCYTE COUNT [3]: 12.2 x10E3/uL
LYMPHOCYTE [3]: 94.33%
MEAN CORPUSCULAR HEMOGLOBIN [3]: 24.87 pg
MEAN CORPUSCULAR HEMOGLOBIN CONCENTRATION [3]: 39.83 G/DL
MEAN CORPUSCULAR VOLUME [3]: 62.43 fL
MONOCYTE [3]: 2%
NEUTROPHIL [3]: 3.67%
NUCLEATED RED BLOOD CELLS [3]: 0 /100WBC
PLATELET COUNT [3]: 1245 x10E3/uL
ALANINE AMINOTRANSFERASE [3]: 377 u/L
ALBUMIN [3]: 4.23 G/DL
ALKALINE PHOSPHATASE [3]: 316.67 u/L
ASPARTATE AMINOTRANSFERASE [3]: 623.67 u/L
BLOOD UREA NITROGEN [3]: 18 mg/dL
CARBON DIOXIDE [3]: 25.33 mmol/L
CHLORIDE [3]: 98 MEQ/L
CHOLESTEROL [3]: 59.33 mg/dL
CREATINE PHOSPHOKINASE [3]: 3619.67 u/L
CREATININE [3]: 0.24 mg/dL
GLUCOSE [3]: 187.67 mg/dL
LACTATE DEHYDROGENASE [3]: 3501.33 u/L
LIPASE [3]: 13.33 u/L
PHOSPHORUS [3]: 13.57 mg/dL
POTASSIUM [3]: 9.03 MEQ/L
SODIUM [3]: 141.23 MEQ/L
TOTAL BILIRUBIN [3]: 0.23 mg/dL
TOTAL PROTEIN [3]: 5.9 G/DL
URIC ACID [3]: 2.9 mg/dL
